Reference: BigSolDB 2.1

C[C@@H]1CC[C@H]2[C@@H](C)C(=O)O[C@@H]3O[C@@]4(C)CC[C@@H]1[C@]32OO4
solubility (mole fraction)
Settings | 283.15 K | 288.15 K | 293.15 K | 298.15 K | 303.15 K | 308.15 K | 313.15 K | 318.15 K | 323.15 K
in acetone | 0.00388 | 0.0051 | 0.00673 | 0.00863 | 0.0114 | 0.0145 | 0.0181 | 0.0223 | 0.0278
in acetonitrile | 0.000198 | 0.000257 | 0.000356 | 0.000518 | 0.000723 | 0.00103 | 0.00143 | 0.00196 | 0.0027
in chloroform | 0.0487 | 0.0613 | 0.0795 | 0.101 | 0.127 | 0.157 | 0.193 | 0.236 | 0.287
in cyclohexane | 0.00044 | 0.000585 | 0.000745 | 0.00106 | 0.00137 | 0.00171 | 0.00209 | 0.00265 | 0.00341
in ethyl acetate | 0.00525 | 0.00786 | 0.0117 | 0.0153 | 0.0205 | 0.0282 | 0.0377 | 0.0499 | 0.0657
in methanol | 0.000559 | 0.000773 | 0.00111 | 0.00145 | 0.00195 | 0.00267 | 0.00375 | 0.00477 | 0.00622
in toluene | 0.0375 | 0.0435 | 0.052 | 0.0603 | 0.0711 | 0.0815 | 0.0937 | 0.107 | 0.122
